Legend:
Type in all cases: cell-based, yeast
[1] = test system: transformed cells TM182-CRE1-CYC1IPT4; test: Liquid culture of transformed cell TM182-CRE1-CYC1IPT4 with examinee substance, absorbance; conditions: Table 3, TM182-CRE1-CYC1-IPT4, 1 μL of 200 ppm DMSO solution per 100 μL, DOHLU+Glu, 30° C. for 24 hours
Procedure: (§1) The thus obtained culture solutions were diluted with DOHLU+Glu culture medium so that OD600 became 0.200, and then the diluted ones were further diluted with DOHLU+Glu culture medium at a dilution rate of 1/200 to obtain diluted pre-cultured solutions.
(§2) A 96-well assay plate was prepared by filling each well with 1 μL of a DMSO solution of an examinee substance (Abscisic acid or 6-Benzyl aminopurine). In this regard, it is to be noted that the DMSO solution of a examinee substance was prepared so that the concentration thereof became 200 ppm. Simultaneously, an assay plate was prepared by filling each well with 1 μL of DMSO as a blank section.
(§3) Each of the diluted pre-cultured solutions was added in a volume of 100 μL per each well of both of the assay plates, and was cultured at 30° C. for 24 hours. After incubation, the turbidity of each well was measured using a plate reader. The absorbance (OD600) of each of the culture solutions of the transformed cells containing the examinee substance was shown in Table 3. […] Further, the growth speeds of the transformed cells TM182-CRE1-CYC1IPT4 and TM182-CRE1-ADHIPT5 in the culture medium to which 6-Benzyl aminopurine was added were faster than those in the culture medium to which only DMSO was added.

[2] = test system: transformed cells TM182-AHK2-ADHIPT5; test: Liquid culture of transformed cell TM182-AHK2-ADHIPT5 with examinee substance, absorbance; conditions: Table 4, TM182-AHK2-ADH-IPT5, 1 μL of 200 ppm DMSO solution per 100 μL, DOHLU+Glu, 30° C. for 24 hours
Procedure: as §1, §2
as §3, with “4.” for “3.”, “TM182-CRE1-ADHIPT4, TM182-AHK2-CYC1IPT4, TM182-AHK2-CYC1IPT5” for “TM182-CRE1-CYC1IPT4”, “TM182-AHK2-ADHIPT5” for “TM182-CRE1-ADHIPT5”

cytokinin receptor AHK2 = target: T1, cytokinin receptor AHK2 (Arabidopsis thaliana, UniProt Q9C5U2); test: Agonist-activity to cytokinin receptor, optical density of TM182-AHK2 liquid culture; parameters: expressed in transfected cells; host or cells: yeast strain TM182 carrying plasmid p415CYC-AHK2 (pHM-1 backbone, CYC1 promoter); conditions: TM182-AHK2, examinee substance 100 μM, DOLU+Glu, 30° C. for 24 hours
T1 sequence (Q9C5U2 1-1176): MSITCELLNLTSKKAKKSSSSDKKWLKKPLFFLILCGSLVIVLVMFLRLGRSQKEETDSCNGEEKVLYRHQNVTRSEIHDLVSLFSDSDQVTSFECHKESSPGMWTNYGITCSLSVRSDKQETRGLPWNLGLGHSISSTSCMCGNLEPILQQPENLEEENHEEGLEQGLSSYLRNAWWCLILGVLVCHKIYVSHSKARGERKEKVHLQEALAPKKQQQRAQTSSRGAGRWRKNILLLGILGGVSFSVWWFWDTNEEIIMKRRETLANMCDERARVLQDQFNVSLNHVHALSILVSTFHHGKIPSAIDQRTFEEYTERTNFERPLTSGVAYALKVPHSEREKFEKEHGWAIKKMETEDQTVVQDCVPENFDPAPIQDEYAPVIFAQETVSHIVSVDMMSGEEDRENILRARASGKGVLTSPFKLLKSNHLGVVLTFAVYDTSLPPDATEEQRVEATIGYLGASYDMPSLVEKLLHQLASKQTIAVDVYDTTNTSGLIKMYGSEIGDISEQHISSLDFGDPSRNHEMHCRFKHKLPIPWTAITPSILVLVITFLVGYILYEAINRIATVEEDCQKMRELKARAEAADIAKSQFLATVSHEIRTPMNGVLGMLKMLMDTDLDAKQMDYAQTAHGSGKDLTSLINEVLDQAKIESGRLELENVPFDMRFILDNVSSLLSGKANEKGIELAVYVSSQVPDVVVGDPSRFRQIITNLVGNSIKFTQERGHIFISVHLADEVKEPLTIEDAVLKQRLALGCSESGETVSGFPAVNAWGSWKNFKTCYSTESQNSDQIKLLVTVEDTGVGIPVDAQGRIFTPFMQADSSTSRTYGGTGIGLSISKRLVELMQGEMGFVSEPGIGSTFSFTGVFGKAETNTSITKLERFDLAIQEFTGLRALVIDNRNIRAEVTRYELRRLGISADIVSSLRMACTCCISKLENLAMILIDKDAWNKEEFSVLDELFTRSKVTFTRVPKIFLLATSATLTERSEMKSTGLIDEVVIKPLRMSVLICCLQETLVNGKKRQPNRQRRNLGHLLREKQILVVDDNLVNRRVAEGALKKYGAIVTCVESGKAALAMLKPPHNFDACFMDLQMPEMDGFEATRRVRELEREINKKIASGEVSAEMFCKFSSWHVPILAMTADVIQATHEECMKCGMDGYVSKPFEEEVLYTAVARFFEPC
Procedure: The transformed cells TM182-AHK2, TM182-AHK2Δ and TM182-AHK3 produced in the reference example 1 were inoculated in 200 ml of DOLU+Gal culture media and pre-cultured at 30° C. for 36 hours. The pre-cultured solutions were diluted with DOLU+Glu media as to become 0.100 as the optical density (OD600) and further the resultants were diluted with DOLU+Glu media at a dilution rate of 1/200 to obtain diluted pre-cultured solutions.
An assay plate was prepared by filling respective wells of a 96-well plate with 20 μl of solutions which were prepared by diluting DMSO solution (10 mM) of each examinee substance with DOLU+Glu medium at a dilution rate of 1/100, said solutions containing each examinee substance to be […]. […]
The diluted pre-cultured solutions were added in 200 μl each into the respective wells of both assay plates and cultured at 30° C. for 24 hours and then the optical density (OD620) of each well was measured by a plate reader. The agonist-activity of the examinee substances to the cytokinin receptor was detected by comparing the optical density measured in the testing sections to which the examinee substances were added with the optical density measured in the blank sections.

[3] = test system: transformed cells TM182-AHK2-CYC1IPT5; test: Liquid culture of transformed cell TM182-AHK2-CYC1IPT5 with examinee substance, absorbance; conditions: Table 4, TM182-AHK2-CYC1-IPT5, 1 μL of 200 ppm DMSO solution per 100 μL, DOHLU+Glu, 30° C. for 24 hours
Procedure: as §1, §2
as §3, with “4.” for “3.”, “TM182-CRE1-ADHIPT4, TM182-AHK2-CYC1IPT4, TM182-AHK2-CYC1IPT5” for “TM182-CRE1-CYC1IPT4”, “TM182-AHK2-ADHIPT5” for “TM182-CRE1-ADHIPT5”

Structure (SMILES)	absorbance (OD600) of the culture solution [1]	absorbance (OD600) of the culture solution [2]	optical density (OD620) of the culture solution (cytokinin receptor AHK2)	absorbance (OD600) of the culture solution [3]
CC1=CC(=O)CC(C)(C)[C@@]1(O)/C=C/C(C)=C\C(=O)O [Compound A, Abscisic acid]	0.102	0.297	0.01	0.069
c1ccc(CNc2ncnc3nc[nH]c23)cc1 [Compound B, 6-Benzyl aminopurine]	0.260	0.427	0.45	0.430

— patent US20050164370A1 (priority 2003, published 2005)
